Test results: ChEMBL document CHEMBL1671626, “In vitro profiling of ceftaroline against a collection of recent bacterial clinical isolates from across the United States” (2008)
In brackets after ≈: the same amount, converted by molar mass.

How the values were obtained:
Format in all cases: functional
Citrobacter freundii [1] = assay: Antibacterial activity against ceftazidime-susceptible Citrobacter freundii by CLSI M7-A7 broth microdilution method
Streptococcus pyogenes [2] = assay: Antibacterial activity against erythromycin-nonsusceptible Streptococcus pyogenes assessed as susceptible isolates by CLSI M7-A7 broth microdilution method
Acinetobacter [3] = assay: Antibacterial activity against multidrug-resistant Acinetobacter assessed as susceptible isolates by CLSI M7-A7 broth microdilution method
Enterobacteriaceae [4] = assay: Antibacterial activity against ceftazidime-susceptible Enterobacteriaceae by CLSI M7-A7 broth microdilution method
Staphylococcus aureus [5] = assay: Antibacterial activity against methicillin-susceptible Staphylococcus aureus by CLSI M7-A7 broth microdilution method
Enterobacter cloacae [6] = assay: Antibacterial activity against ceftazidime-susceptible Enterobacter cloacae by CLSI M7-A7 broth microdilution method
Staphylococcus aureus [7] = assay: Antibacterial activity against coagulase-negative and oxacillin-susceptible Staphylococcus aureus assessed as susceptible isolates by CLSI M7-A7 broth microdilution method
Streptococcus pyogenes [8] = assay: Antibacterial activity against erythromycin-nonsusceptible Streptococcus pyogenes by CLSI M7-A7 broth microdilution method
Streptococcus agalactiae [9] = assay: Antibacterial activity against erythromycin-susceptible Streptococcus agalactiae by CLSI M7-A7 broth microdilution method
Citrobacter freundii [10] = assay: Antibacterial activity against ceftazidime-nonsusceptible Citrobacter freundii assessed as resistant isolates by CLSI M7-A7 broth microdilution method
Streptococcus viridans [11] = assay: Antibacterial activity against penicillin-nonsusceptible Streptococcus viridans assessed as susceptible isolates by CLSI M7-A7 broth microdilution method
Streptococcus viridans [12] = assay: Antibacterial activity against penicillin-susceptible Streptococcus viridans assessed as susceptible isolates by CLSI M7-A7 broth microdilution method
Serratia marcescens [13] = assay: Antibacterial activity against ceftazidime-susceptible Serratia marcescens assessed as susceptible isolates by CLSI M7-A7 broth microdilution method
Staphylococcus aureus [14] = assay: Antibacterial activity against methicillin-resistant Staphylococcus aureus assessed as susceptible isolates by CLSI M7-A7 broth microdilution method
Staphylococcus aureus [15] = assay: Antibacterial activity against coagulase-negative and oxacillin-resistant Staphylococcus aureus by CLSI M7-A7 broth microdilution method
Citrobacter freundii [16] = assay: Antibacterial activity against ceftazidime-nonsusceptible Citrobacter freundii assessed as susceptible isolates by CLSI M7-A7 broth microdilution method
Pasteurella multocida [17] = assay: Antibacterial activity against Pasteurella multocida assessed as susceptible isolates by CLSI M7-A7 broth microdilution method
Pasteurella multocida [18] = assay: Antibacterial activity against Pasteurella multocida by CLSI M7-A7 broth microdilution method
Acinetobacter [19] = assay: Antibacterial activity against multidrug-resistant Acinetobacter assessed as resistant isolates by CLSI M7-A7 broth microdilution method
Streptococcus viridans [20] = assay: Antibacterial activity against penicillin-susceptible Streptococcus viridans assessed as resistant isolates by CLSI M7-A7 broth microdilution method
Proteus mirabilis [21] = assay: Antibacterial activity against ceftazidime-susceptible Proteus mirabilis assessed as susceptible isolates by CLSI M7-A7 broth microdilution method
Escherichia coli [22] = assay: Antibacterial activity against ceftazidime-susceptible Escherichia coli by CLSI M7-A7 broth microdilution method
Klebsiella pneumoniae [23] = assay: Antibacterial activity against ceftazidime-susceptible Klebsiella pneumoniae assessed as resistant isolates by CLSI M7-A7 broth microdilution method
Staphylococcus aureus [24] = assay: Antibacterial activity against coagulase-negative and oxacillin-susceptible Staphylococcus aureus by CLSI M7-A7 broth microdilution method
Citrobacter freundii [25] = assay: Antibacterial activity against ceftazidime-nonsusceptible Citrobacter freundii by CLSI M7-A7 broth microdilution method
Streptococcus pneumoniae = assay: Antibacterial activity against penicillin-susceptible Streptococcus pneumoniae assessed as resistant isolates by CLSI M7-A7 broth microdilution method
Staphylococcus aureus [26] = assay: Antibacterial activity against methicillin-susceptible Staphylococcus aureus assessed as resistant isolates by CLSI M7-A7 broth microdilution method
Streptococcus agalactiae [27] = assay: Antibacterial activity against erythromycin-nonsusceptible Streptococcus agalactiae assessed as susceptible isolates by CLSI M7-A7 broth microdilution method
Streptococcus agalactiae [28] = assay: Antibacterial activity against erythromycin-susceptible Streptococcus agalactiae assessed as susceptible isolates by CLSI M7-A7 broth microdilution method
Serratia marcescens [29] = assay: Antibacterial activity against ceftazidime-susceptible Serratia marcescens by CLSI M7-A7 broth microdilution method
Acinetobacter [30] = assay: Antibacterial activity against multidrug-resistant Acinetobacter by CLSI M7-A7 broth microdilution method
Staphylococcus aureus [31] = assay: Antibacterial activity against coagulase-negative and oxacillin-susceptible Staphylococcus aureus assessed as resistant isolates by CLSI M7-A7 broth microdilution method
Haemophilus influenzae [32] = assay: Antibacterial activity against beta lactamase-negative Haemophilus influenzae assessed as susceptible isolates by CLSI M7-A7 broth microdilution method
Morganella morganii = assay: Antibacterial activity against ceftazidime-susceptible Morganella morganii by CLSI M7-A7 broth microdilution method
Klebsiella pneumoniae [33] = assay: Antibacterial activity against ceftazidime-nonsusceptible Klebsiella pneumoniae assessed as susceptible isolates by CLSI M7-A7 broth microdilution method
Providencia sp. = assay: Antibacterial activity against ceftazidime-susceptible Providencia sp. assessed as susceptible isolates by CLSI M7-A7 broth microdilution method
Proteus mirabilis [34] = assay: Antibacterial activity against ceftazidime-susceptible Proteus mirabilis by CLSI M7-A7 broth microdilution method
Enterobacteriaceae [35] = assay: Antibacterial activity against ceftazidime-susceptible Enterobacteriaceae assessed as susceptible isolates by CLSI M7-A7 broth microdilution method
Staphylococcus aureus [36] = assay: Antibacterial activity against methicillin-resistant Staphylococcus aureus by CLSI M7-A7 broth microdilution method
Haemophilus influenzae [37] = assay: Antibacterial activity against beta lactamase-positive Haemophilus influenzae assessed as susceptible isolates by CLSI M7-A7 broth microdilution method
Enterobacter cloacae [38] = assay: Antibacterial activity against ceftazidime-nonsusceptible Enterobacter cloacae by CLSI M7-A7 broth microdilution method
Escherichia coli [39] = assay: Antibacterial activity against ceftazidime-nonsusceptible Escherichia coli by CLSI M7-A7 broth microdilution method
Enterobacteriaceae [40] = assay: Antibacterial activity against ceftazidime-nonsusceptible Enterobacteriaceae assessed as susceptible isolates by CLSI M7-A7 broth microdilution method
Enterobacteriaceae [41] = assay: Antibacterial activity against ceftazidime-susceptible Enterobacteriaceae assessed as resistant isolates by CLSI M7-A7 broth microdilution method
Haemophilus influenzae [42] = assay: Antibacterial activity against beta lactamase-negative Haemophilus influenzae by CLSI M7-A7 broth microdilution method

For CO/N=C(\C(=O)N[C@@H]1C(=O)N2C(C(=O)O)=C(CSc3nc(=O)c(O)nn3C)CS[C@H]12)c1csc(N)n1 [CEFTRIAXONE], the MIC50 (Citrobacter freundii [1]) was 0.12 µg/mL (≈ 0.216 µM), the MIC90 (Citrobacter freundii [1]) was 0.5 µg/mL (≈ 0.902 µM) and the Activity (Streptococcus pyogenes [2]) was 100%. It also gave an Activity (Acinetobacter [3]) of 0%, an MIC50 (Enterobacteriaceae [4]) of no more than 0.06 µg/mL and an MIC90 (Enterobacteriaceae [4]) of 0.25 µg/mL (≈ 0.451 µM). It also gave an MIC50 (Staphylococcus aureus [5]) of 2 µg/mL (≈ 3.61 µM), an MIC90 (Staphylococcus aureus [5]) of 4 µg/mL (≈ 7.21 µM) and an MIC50 (Enterobacter cloacae [6]) of 0.12 µg/mL (≈ 0.216 µM). It also gave an MIC90 (Enterobacter cloacae [6]) of 1 µg/mL (≈ 1.8 µM), an Activity (Staphylococcus aureus [7]) of 98% and an MIC50 (Streptococcus pyogenes [8]) of 0.03 µg/mL (≈ 0.0541 µM). The MIC90 (Streptococcus pyogenes [8]) was 0.12 µg/mL (≈ 0.216 µM), the MIC50 (Streptococcus agalactiae [9]) was 0.06 µg/mL (≈ 0.108 µM) and the MIC90 (Streptococcus agalactiae [9]) was 0.12 µg/mL (≈ 0.216 µM). For the same compound, the Activity (Citrobacter freundii [10]) was 0%, the Activity (Streptococcus viridans [11]) was 28.6% and the Activity (Streptococcus viridans [12]) was 100%. It also gave an Activity (Serratia marcescens [13]) of 93.2%, an Activity (Staphylococcus aureus [14]) of 14.2% and an MIC50 (Staphylococcus aureus [15]) of 16 µg/mL (≈ 28.9 µM). It also gave an MIC90 (Staphylococcus aureus [15]) greater than 32 µg/mL, an Activity (Citrobacter freundii [16]) of 6.1% and an Activity (Pasteurella multocida [17]) of 100%. The MIC (Pasteurella multocida [18]) was no more than 0.015 µg/mL, the MIC50 (Pasteurella multocida [18]) was no more than 0.015 µg/mL and the MIC90 (Pasteurella multocida [18]) was no more than 0.015 µg/mL. It also gave an Activity (Acinetobacter [19]) of 0%, an Activity (Streptococcus viridans [20]) of 0% and an Activity (Proteus mirabilis [21]) of 96.6%. For the same compound, the MIC50 (Escherichia coli [22]) was no more than 0.06 µg/mL, the MIC90 (Escherichia coli [22]) was 0.12 µg/mL (≈ 0.216 µM) and the Activity (Klebsiella pneumoniae [23]) was 0%. It also gave an MIC50 (Staphylococcus aureus [24]) of 1 µg/mL (≈ 1.8 µM), an MIC90 (Staphylococcus aureus [24]) of 4 µg/mL (≈ 7.21 µM) and an MIC50 (Citrobacter freundii [25]) greater than 16 µg/mL. The MIC90 (Citrobacter freundii [25]) was greater than 16 µg/mL, the Activity (Streptococcus pneumoniae) was 0% and the Activity (Staphylococcus aureus [26]) was 0.3%. For the same compound, the Activity (Streptococcus agalactiae [27]) was 97.6%, the Activity (Streptococcus agalactiae [28]) was 100% and the MIC50 (Serratia marcescens [29]) was 0.25 µg/mL (≈ 0.451 µM). It also gave an MIC90 (Serratia marcescens [29]) of 4 µg/mL (≈ 7.21 µM), an MIC (Acinetobacter [30]) greater than 16 µg/mL and an MIC50 (Acinetobacter [30]) greater than 16 µg/mL. For the same compound, the Activity (Staphylococcus aureus [31]) was 0%, the Activity (Haemophilus influenzae [32]) was 100% and the MIC (Morganella morganii) was no more than 0.06 µg/mL. For the same compound, the MIC50 (Morganella morganii) was no more than 0.06 µg/mL, the MIC90 (Morganella morganii) was 1 µg/mL (≈ 1.8 µM) and the Activity (Klebsiella pneumoniae [33]) was 12.1%. For the same compound, the Activity (Providencia sp.) was 100%, the MIC50 (Proteus mirabilis [34]) was no more than 0.06 µg/mL and the MIC90 (Proteus mirabilis [34]) was 0.12 µg/mL (≈ 0.216 µM). It also gave an Activity (Enterobacteriaceae [35]) of 98%, an MIC50 (Staphylococcus aureus [36]) of 16 µg/mL (≈ 28.9 µM) and an MIC90 (Staphylococcus aureus [36]) greater than 32 µg/mL. For the same compound, the Activity (Haemophilus influenzae [37]) was 100%, the MIC50 (Enterobacter cloacae [38]) was greater than 16 µg/mL and the MIC90 (Enterobacter cloacae [38]) was greater than 16 µg/mL. The MIC50 (Escherichia coli [39]) was greater than 16 µg/mL, the MIC90 (Escherichia coli [39]) was greater than 16 µg/mL and the Activity (Enterobacteriaceae [40]) was 13.2%. The Activity (Enterobacteriaceae [41]) was 0%, the MIC (Haemophilus influenzae [42]) was no more than 0.06 µg/mL and the MIC50 (Haemophilus influenzae [42]) was no more than 0.06 µg/mL. It also gave an MIC90 (Haemophilus influenzae [42]) of no more than 0.06 µg/mL.
